Literature values in patent publication US20020169561A1, “Modular computational models for predicting the pharmaceutical properties of chemical compunds” (priority 2001, published 2002).
Values joined by “and” are separate entries in the source; they are usually repeats but may differ in a detail not shown here. Equal values may be shown once. Read-outs that look alike come from different tables or passages of the source.

Legend:
[1] = in vivo drug absorption, compiled by search of the literature
renin = biological target: T1, renin (Homo sapiens, UniProt P00797); design: −ΔS: unit not given here; details: for −ΔH: enthalpy of binding to renin; for −ΔS: entropy of binding to renin; for −ΔG: free energy of binding to renin; for Kd: renin inhibitors
T1 sequence (P00797 67-406): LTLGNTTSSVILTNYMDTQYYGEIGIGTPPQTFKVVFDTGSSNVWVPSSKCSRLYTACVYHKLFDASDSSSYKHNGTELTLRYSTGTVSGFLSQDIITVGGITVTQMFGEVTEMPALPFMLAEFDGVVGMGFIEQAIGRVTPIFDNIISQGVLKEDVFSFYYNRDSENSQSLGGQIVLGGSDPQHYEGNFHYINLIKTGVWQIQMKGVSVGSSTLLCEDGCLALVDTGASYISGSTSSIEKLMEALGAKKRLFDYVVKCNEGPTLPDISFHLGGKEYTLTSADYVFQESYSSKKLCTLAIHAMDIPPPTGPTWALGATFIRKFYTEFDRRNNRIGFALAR

[2] = Caco-2 permeability coefficient, Table 3
[3] = observed, training set, Table 7

Row | Compound | Permeability × 10^6 (cm/sec) (Caco-2 cell monolayer; [2]) | Obs. Pcaco-2x10^6 (Caco-2 cell monolayer; [3]) | % Absorbed [1] | further results
1 | CNCCCN1c2ccccc2CCc2ccccc21 [Desipramine] | 24.20 × 10^6 (cm/sec) | 24.2 x10^6 | 95% | 
2 | CN1C(=O)CN=C(c2ccccc2)c2cc(Cl)ccc21 [Diazepam] |  |  | 100% | 
3 | Ac-his-pro-phe-his-sta-ile-NH2 [Compound U72409E] |  |  |  | −ΔH (renin): 22.63 kcal/mol; −ΔS (renin): 108.0; −ΔG (renin): 10.8 kcal/mol; Kd (renin): 23 nM
4 | Ac-pro-phe-his-phe-Y[CH2NH]phe-NH2 [Compound U71909E] |  |  |  | −ΔH (renin): 13.70 kcal/mol; −ΔS (renin): 78.4; −ΔG (renin): 10.6 kcal/mol; Kd (renin): 29 nM
5 | CN1CCCC1c1cccnc1 (stereo not shown) [Nicotine] |  |  | 100% | Obs. Pcaco-2x10^6 (Caco-2 cell monolayer; Caco-2): 19.4 x10^6; Permeability × 10^6 (cm/sec) (Caco-2 cell monolayer; Caco-2): 19.40 × 10^6 (cm/sec)
6 | Ac-pro-phe-his-phe-Y[CH2NH]phe-Mba [Compound U77451E] |  |  |  | −ΔH (renin): 26.70 kcal/mol; −ΔS (renin): 125.3; −ΔG (renin): 12.2 kcal/mol; Kd (renin): 2.5 nM
7 | CC(CCc1ccccc1)NCC(O)c1ccc(O)c(C(N)=O)c1 (stereo not shown) [Labetalol] |  |  | 90% | 
8 | Ac-phe-his-leu-y[CH(OH)CH2]val-ile-NH2 [Compound U80631E] |  |  |  | −ΔH (renin): 14.28 kcal/mol; −ΔS (renin): 75.7; −ΔG (renin): 9.2 kcal/mol; Kd (renin): 370 nM
9 | Ac-D-pro-phe-his-leu-Y[CH(OH)CH2]val-ile-NH2 [Compound U77647E] |  |  |  | −ΔH (renin): 20.33 kcal/mol; −ΔS (renin): 105.5; −ΔG (renin): 12.4 kcal/mol; Kd (renin): 1.3 nM
10 | O=C1NC(=O)C(c2ccccc2)(c2ccccc2)N1 [Phenytoin] | 26.70 × 10^6 (cm/sec) | 26.7 x10^6 | 90% | 
11 | C[C@@H]1C[C@H]2[C@@H]3CCC4=CC(=O)C=C[C@]4(C)[C@@]3(F)[C@@H](O)C[C@]2(C)[C@@]1(O)C(=O)CO [Dexamethasone] |  |  | 100% | 
12 | CC(C)(C)NC[C@H](O)COc1nsnc1N1CCOCC1 [Timolol] | 12.80 × 10^6 (cm/sec) | 12.8 x10^6 | 72% | 
13 | C[C@]12CC[C@H]3[C@@H](CCC4=CC(=O)CC[C@@]43C)[C@@H]1CC[C@@H]2O [Testosterone] |  |  | 100% | Obs. Pcaco-2x10^6 (Caco-2 cell monolayer; Caco-2): 24.9 x10^6
14 | c1ccc(C2(N3CCCCC3)CCCCC2)cc1 [Phencyclidine] |  |  |  | Obs. Pcaco-2x10^6 (Caco-2 cell monolayer; Caco-2): 24.7 x10^6; Permeability × 10^6 (cm/sec) (Caco-2 cell monolayer; Caco-2): 24.70 × 10^6 (cm/sec)
15 | Cc1cn([C@H]2C[C@H](N=[N+]=[N-])[C@@H](CO)O2)c(=O)[nH]c1=O [Zidovudine] | 6.93 × 10^6 (cm/sec) |  | 100% | 
16 | CN(C)CCCN1c2ccccc2Sc2ccc(Cl)cc21 [Chlorpromazine] | 19.90 × 10^6 (cm/sec) | 19.9 x10^6 | 90% | 
17 | Clc1cccc(Cl)c1N=C1NCCN1 [Clonidine] | 21.80 × 10^6 (cm/sec) | 21.8 x10^6 | 100% | 
18 | Nc1nc2c(ncn2COCCO)c(=O)[nH]1 [Acyclovir] | 0.25 × 10^6 (cm/sec) | 0.25 x10^6 |  | 
19 | C[C@]12C[C@H](O)[C@H]3[C@@H](CCC4=CC(=O)CC[C@@]43C)[C@@H]1CC[C@@H]2C(=O)CO [Corticosterone] |  | 21.2 x10^6 | 100% | 
20 | Ac-pro-phe-his-sta-ile-NH2 [Compound U72408E] |  |  |  | −ΔH (renin): 14.69 kcal/mol; −ΔS (renin): 79.6; −ΔG (renin): 9.9 kcal/mol; Kd (renin): 98 nM
21 | Ac-phe-his-sta-ile-NH2 [Compound U72407E] |  |  |  | −ΔH (renin): 26.10 kcal/mol; −ΔS (renin): 114.8; −ΔG (renin): 9.5 kcal/mol; Kd (renin): 203 nM and 204 nM

Row | Compound | Permeability × 10^6 (cm/sec) (Caco-2 cell monolayer; [2]) | Obs. Pcaco-2x10^6 (Caco-2 cell monolayer; [3]) | % Absorbed [1] | further results
22 | NC(N)=O [Urea] | 4.56 × 10^6 (cm/sec) |  |  | 
23 | O=C(O)c1cc(/N=N/c2ccc(S(=O)(=O)Nc3ccccn3)cc2)ccc1O [Sulfasalazine] | 0.30 × 10^6 (cm/sec) | 0.3 x10^6 |  | 
24 | CCC12CCN(CC3(O)CC3)C(Cc3ccc(O)cc31)C2(C)C (stereo not shown) [Bremazocine] |  | 8.02 x10^6 |  | Permeability × 10^6 (cm/sec) (Caco-2 cell monolayer; Caco-2): 8.02 × 10^6 (cm/sec)
25 | CC(C)NCC(O)COc1cccc2[nH]ccc12 (stereo not shown) [Pindolol] | 16.70 × 10^6 (cm/sec) | 16.7 x10^6 | 95% | 
26 | CC(C)(C)NCC(O)COc1cccc2c1CC(O)C(O)C2 (stereo not shown) [Nadolol] | 3.88 × 10^6 (cm/sec) | 3.88 x10^6 |  | 
27 | COCCc1ccc(OCC(O)CNC(C)C)cc1 (stereo not shown) [Metoprolol] | 23.70 × 10^6 (cm/sec) | 23.7 x10^6 |  | 
28 | CC(C)(C)NCC(O)c1cc(O)cc(O)c1 (stereo not shown) [Terbutaline] | 0.47 × 10^6 (cm/sec) | 0.47 x10^6 | 73% | 
29 | Cc1c(N(C)C)c(=O)n(-c2ccccc2)n1C [Aminopyrine] | 36.5 × 10^6 (cm/sec) |  |  | 
30 | CC(=O)[C@H]1CC[C@H]2[C@@H]3CCC4=CC(=O)CC[C@]4(C)[C@H]3CC[C@]12C [Progesterone] | 23.70 × 10^6 (cm/sec) | 23.7 x10^6 |  | 
31 | NCCc1ccc(O)c(O)c1 [Dopamine] | 9.33 × 10^6 (cm/sec) | 9.33 x10^6 |  | 
32 | C=CCc1ccccc1OCC(O)CNC(C)C (stereo not shown) [Alprenolol] | 25.30 × 10^6 (cm/sec) | 25.3 x10^6 | 93% | 
33 | Iva-his-pro-phe-his-sta-ile-phe-NH2 [Compound U77455E] |  |  |  | −ΔH (renin): 21.36 kcal/mol; −ΔS (renin): 108.9; −ΔG (renin): 12.4 kcal/mol; Kd (renin): 1.7 nM
34 | CC(C)NCC(O)COc1cccc2ccccc12 (stereo not shown) [Propranolol] | 21.80 × 10^6 (cm/sec) |  |  | 
35 | Ac-pro-phe-his-leu-Y[CH(OH)CH2]val-ile-NH2 [Compound U77646E] |  |  |  | −ΔH (renin): 28.75 kcal/mol; −ΔS (renin): 131.1; −ΔG (renin): 11.5 kcal/mol; Kd (renin): 5.4 nM
36 | CC(=O)CC(c1ccccc1)c1c(O)c2ccccc2oc1=O (stereo not shown) [Warfarin] | 21.10 × 10^6 (cm/sec) |  |  | 
37 | OC[C@@H](O)[C@@H](O)[C@H](O)[C@H](O)CO [Mannitol] | 0.38 × 10^6 (cm/sec) |  | 16% | 
38 | Ac-phe-his-phe-Y[CH2NH]phe-NH2 [Compound U73777E] |  |  |  | −ΔH (renin): 14.20 kcal/mol; −ΔS (renin): 76.3; −ΔG (renin): 9.4 kcal/mol; Kd (renin): 220 nM
39 | Nc1nc(O)c2ncn(COC(CO)CO)c2n1 [Ganciclovir] |  |  | 3% | 
40 | O=C(O)c1ccccc1O [Salicylic acid] | 22.00 × 10^6 (cm/sec) | 22 x10^6 |  | 
41 | COc1ccc2c(c1)c(CC(=O)O)c(C)n2C(=O)c1ccc(Cl)cc1 [Indomethacin] | 20.40 × 10^6 (cm/sec) | 20.4 x10^6 |  | 
